# Data: publication PMC5493349, “Quaternary structure is an essential component that contributes to the sophisticated allosteric regulation mechanism in a key enzyme from Mycobacterium tuberculosis” (PLoS ONE, 2017)
# What was measured:
# MtuDAH7PSG232P = MtuDAH7PSG232P (Mycobacterium tuberculosis, UniProt O53512, G232P); type: biochemical
# wild-type MtuDAH7PS [1] = biological target: T1, wild-type MtuDAH7PS (Mycobacterium tuberculosis, UniProt O53512); conditions: cited from earlier work
# MtuDAH7PSF227D = MtuDAH7PSF227D (Mycobacterium tuberculosis, UniProt O53512, F227D); type: biochemical
# wild-type MtuDAH7PS [2] = biological target: T1, wild-type MtuDAH7PS; type: biochemical
SMILES,inhibition of dimeric variant MtuDAH7PSG232P (MtuDAH7PSG232P),"inhibition of wild-type enzyme by single amino acid, unsaturated E4P (wild-type MtuDAH7PS [1])",inhibition of dimeric variant MtuDAH7PSF227D (MtuDAH7PSF227D),inhibition of wild-type enzyme (wild-type MtuDAH7PS [2])
"N[C@@H](Cc1ccccc1)C(=O)O [Phe, L-Phe]",50%,50%,50%,
"N[C@@H](Cc1ccc(O)cc1)C(=O)O [Tyr, L-Tyr]",40%,47%,40%,no inhibition
